Results reported in patent US20260102413A1, “TREATING PAIN ASSOCIATED WITH CENTRAL SENSITIZATION” (Medicon Pharmaceuticals, Inc., priority 2022, published 2026).

Experiments:
[1] = system: mice with paclitaxel-induced CIPN; test: von Frey PWT, paclitaxel CIPN model, orally administered compounds; format: in vivo, mouse; conditions: paclitaxel 8 mg/kg x4; oral gavage 3x/day 7 days: PS 50, sulindac 33, PN 65, naproxen 35 mg/kg; day 7
From the text: CIPN was induced in mice with chemotherapeutic agents using established protocols (Carozzi et al, 2010; Currie et al, 2019; Eldridge et al, 2020). […] This dosing regimen of paclitaxel produces pain associated with CIPN with time courses that are similar to those of pain after paclitaxel administration in cancer patients.
Group 1: naïve mice (i.e. no paclitaxel, n=8) • 2. Group 2: paclitaxel only (n=8) • 3. Group 3: paclitaxel plus vehicle (n=8) • 4. […] Group 5: paclitaxel pluse sulindac (n=8)
The PWT test was performed on day 7.
Phospho-naproxen (PN) and naproxen were given by oral gavage, three times a day for 7 days. Their doses were as follows: PN, 65 mg/kg; naproxen, 35 mg/kg (equimolar to PN). The response of mechanical allodynia to phospho-naproxen (PN) and naproxen was tested on day 7.
(§1) This dosing regimen of paclitaxel produces pain associated with CIPN with time courses that are similar to those of pain after paclitaxel administration in cancer patients.
Phospho-ibuprofen (PI) (Formula III), phospho-glycerol-ibuprofen (PGI) (Formula LXXI), phospho-ibuprofen-amide (PIA) (Formula XI), and ibuprofen were given by oral gavage, three times a day for 6 days. Their doses were as follows: ibuprofen, 40 mg/kg; PI, 80 mg/kg; PIA, 80 mg/kg; all three were equimolar.
The response of mechanical allodynia to these compounds was tested on day 6, using the PWT test.
as §1
NO-sulindac (Formula XLIV), HS-sulindac (Formula XXXIV), platinum-sulindac (Formula LXVII), and NOSH-1 (Formula LIX) were given by oral gavage, three times a day throughout the study period. Their doses were all 100 mg/kg.
The response of mechanical allodynia to these compounds was tested on the days set out in the table below, via the PWT test.
LXIX was given by oral gavage, once a day for 14 days at a dose of 100 mg/kg.
The response of mechanical allodynia to these compounds was tested on day 14, via the PWT test.

[2] = drug levels in proximal and distal half of the sciatic nerve after topical PS; format: in vivo, mouse; conditions: paclitaxel-PN mice, PS 8% ointment 3x/d 2 wks; 30 min after last dose
Protocol: In a separate experiment we studied 8 mice with paclitaxel-induced PN treated with PS 8% ointment 3×/d for 2 wks. Mice were euthanized as above 30 minutes after the last dose of PS. From these mice we harvested both sciatic nerves dividing each into proximal and distal halves, and combined the corresponding halves of every two animals for assay of drug levels.

CC1=C(CC(=O)O)c2cc(F)ccc2/C1=C\c1ccc([S+](C)[O-])cc1 (centres unmarked) [sulindac, reference compound]
PWT, g Mean ± SEM [1]: 0.56 ± 0.05 g
Fold difference distal vs proximal [2]: 8.5
